Measured values published in ChEMBL document CHEMBL5653631, “A Potent and Selective ULK1 Inhibitor Suppresses Autophagy and Sensitizes Cancer Cells to Nutrient Stress” (iScience, 2018).
Blank lines part the entries; values can stand above or below the compound they belong to.

Columns and labels:
[1] = target: T1, Serine/threonine-protein kinase DCLK2 (Homo sapiens) (UniProt Q8N568); experiment: Inhibition of human recombinant DCAMKL2 at 500 nM related to control ULK1
T1 sequence (whole entry): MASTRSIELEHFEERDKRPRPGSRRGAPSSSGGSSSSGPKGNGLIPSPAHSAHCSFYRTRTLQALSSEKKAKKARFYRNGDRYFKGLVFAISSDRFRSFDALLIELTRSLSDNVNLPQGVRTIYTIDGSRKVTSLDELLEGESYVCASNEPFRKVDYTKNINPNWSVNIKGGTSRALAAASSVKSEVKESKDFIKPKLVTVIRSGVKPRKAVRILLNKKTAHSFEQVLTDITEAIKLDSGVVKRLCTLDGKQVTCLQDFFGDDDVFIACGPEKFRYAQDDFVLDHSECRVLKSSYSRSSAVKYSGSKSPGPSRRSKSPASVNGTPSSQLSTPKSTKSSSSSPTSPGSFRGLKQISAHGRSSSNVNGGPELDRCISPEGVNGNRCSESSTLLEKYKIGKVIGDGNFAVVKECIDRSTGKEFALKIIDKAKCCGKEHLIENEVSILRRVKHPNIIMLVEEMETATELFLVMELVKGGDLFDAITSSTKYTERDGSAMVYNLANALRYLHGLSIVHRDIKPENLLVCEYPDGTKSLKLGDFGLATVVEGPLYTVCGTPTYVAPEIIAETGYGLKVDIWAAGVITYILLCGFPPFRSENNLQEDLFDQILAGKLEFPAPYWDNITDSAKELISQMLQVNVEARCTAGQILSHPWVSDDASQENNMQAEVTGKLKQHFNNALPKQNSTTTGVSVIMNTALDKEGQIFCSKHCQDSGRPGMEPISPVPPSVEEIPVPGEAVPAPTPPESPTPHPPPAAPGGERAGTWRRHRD

[2] = target: MAP kinase-interacting serine/threonine-protein kinase 2 (Homo sapiens, UniProt Q9HBH9); experiment: Inhibition of human recombinant MNK2 at 500 nM related to control ULK1
[3] = target: Myosin light chain kinase 2, skeletal/cardiac muscle (Homo sapiens) (UniProt Q9H1R3); experiment: Inhibition of human recombinant skMLCK at 500 nM in presence of ATP by radiometric assay relative to control
[4] = target: T2, Inhibitor of nuclear factor kappa-B kinase subunit alpha (Homo sapiens) (UniProt O15111); experiment: Inhibition of human recombinant IKKa at 15 nM in presence of ATP by radiometric assay relative to control
T2 sequence (whole entry): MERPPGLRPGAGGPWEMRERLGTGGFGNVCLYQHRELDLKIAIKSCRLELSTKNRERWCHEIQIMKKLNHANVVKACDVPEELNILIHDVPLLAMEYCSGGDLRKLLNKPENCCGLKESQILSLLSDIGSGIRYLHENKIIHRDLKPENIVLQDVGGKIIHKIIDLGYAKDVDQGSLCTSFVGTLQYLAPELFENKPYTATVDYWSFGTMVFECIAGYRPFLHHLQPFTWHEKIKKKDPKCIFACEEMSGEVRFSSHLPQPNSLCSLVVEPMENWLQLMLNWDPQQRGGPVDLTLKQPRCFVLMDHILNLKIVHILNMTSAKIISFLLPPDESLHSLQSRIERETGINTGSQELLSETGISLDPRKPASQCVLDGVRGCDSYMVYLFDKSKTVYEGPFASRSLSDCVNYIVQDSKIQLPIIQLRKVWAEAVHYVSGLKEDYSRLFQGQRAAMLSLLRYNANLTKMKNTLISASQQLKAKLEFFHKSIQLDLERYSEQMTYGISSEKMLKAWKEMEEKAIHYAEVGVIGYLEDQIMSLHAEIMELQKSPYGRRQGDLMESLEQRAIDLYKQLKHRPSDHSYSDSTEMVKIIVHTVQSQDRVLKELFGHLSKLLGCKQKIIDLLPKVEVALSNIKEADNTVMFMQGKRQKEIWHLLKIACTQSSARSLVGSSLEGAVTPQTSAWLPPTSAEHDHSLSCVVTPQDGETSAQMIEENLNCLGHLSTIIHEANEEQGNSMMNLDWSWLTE

[5] = target: Homeodomain-interacting protein kinase 3 (Homo sapiens) (UniProt Q9H422); experiment: Inhibition of human recombinant HIPK3 at 15 nM related to control ULK1
[6] = target: Tyrosine-protein kinase Fes/Fps (Homo sapiens) (UniProt P07332); experiment: Inhibition of human recombinant FES at 15 nM in presence of ATP by radiometric assay relative to control
[7] = target: Glycogen synthase kinase-3 alpha (Homo sapiens) (UniProt P49840); experiment: Inhibition of human recombinant GSK3A at 40 nM related to control ULK1
[8] = target: Epithelial discoidin domain-containing receptor 1 (Homo sapiens) (UniProt Q08345); experiment: Inhibition of human recombinant DDR1 at 40 nM related to control ULK1
[9] = target: Serine/threonine-protein kinase pim-3 (Homo sapiens) (UniProt Q86V86); experiment: Inhibition of human recombinant PIM3 at 40 nM in presence of ATP by radiometric assay relative to control

Sequence of Myosin light chain kinase 2, skeletal/cardiac muscle (Homo sapiens) (Q9H1R3 whole entry): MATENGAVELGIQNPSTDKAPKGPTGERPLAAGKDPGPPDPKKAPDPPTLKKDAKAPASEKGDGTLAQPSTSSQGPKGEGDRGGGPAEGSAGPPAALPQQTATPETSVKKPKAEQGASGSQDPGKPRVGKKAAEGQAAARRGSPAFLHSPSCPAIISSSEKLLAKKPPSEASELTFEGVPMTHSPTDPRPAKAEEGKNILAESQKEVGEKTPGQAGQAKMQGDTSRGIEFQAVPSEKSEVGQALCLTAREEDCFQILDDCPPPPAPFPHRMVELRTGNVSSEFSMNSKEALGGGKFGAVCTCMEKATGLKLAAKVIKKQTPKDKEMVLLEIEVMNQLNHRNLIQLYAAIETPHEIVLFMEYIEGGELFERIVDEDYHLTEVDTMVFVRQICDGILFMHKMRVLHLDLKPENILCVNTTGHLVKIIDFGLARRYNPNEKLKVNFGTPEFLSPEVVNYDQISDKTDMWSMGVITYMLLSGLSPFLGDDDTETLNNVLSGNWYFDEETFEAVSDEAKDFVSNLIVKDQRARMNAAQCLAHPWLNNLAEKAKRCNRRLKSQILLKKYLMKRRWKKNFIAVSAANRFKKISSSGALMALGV
Sequence of Tyrosine-protein kinase Fes/Fps (Homo sapiens) (P07332 whole entry): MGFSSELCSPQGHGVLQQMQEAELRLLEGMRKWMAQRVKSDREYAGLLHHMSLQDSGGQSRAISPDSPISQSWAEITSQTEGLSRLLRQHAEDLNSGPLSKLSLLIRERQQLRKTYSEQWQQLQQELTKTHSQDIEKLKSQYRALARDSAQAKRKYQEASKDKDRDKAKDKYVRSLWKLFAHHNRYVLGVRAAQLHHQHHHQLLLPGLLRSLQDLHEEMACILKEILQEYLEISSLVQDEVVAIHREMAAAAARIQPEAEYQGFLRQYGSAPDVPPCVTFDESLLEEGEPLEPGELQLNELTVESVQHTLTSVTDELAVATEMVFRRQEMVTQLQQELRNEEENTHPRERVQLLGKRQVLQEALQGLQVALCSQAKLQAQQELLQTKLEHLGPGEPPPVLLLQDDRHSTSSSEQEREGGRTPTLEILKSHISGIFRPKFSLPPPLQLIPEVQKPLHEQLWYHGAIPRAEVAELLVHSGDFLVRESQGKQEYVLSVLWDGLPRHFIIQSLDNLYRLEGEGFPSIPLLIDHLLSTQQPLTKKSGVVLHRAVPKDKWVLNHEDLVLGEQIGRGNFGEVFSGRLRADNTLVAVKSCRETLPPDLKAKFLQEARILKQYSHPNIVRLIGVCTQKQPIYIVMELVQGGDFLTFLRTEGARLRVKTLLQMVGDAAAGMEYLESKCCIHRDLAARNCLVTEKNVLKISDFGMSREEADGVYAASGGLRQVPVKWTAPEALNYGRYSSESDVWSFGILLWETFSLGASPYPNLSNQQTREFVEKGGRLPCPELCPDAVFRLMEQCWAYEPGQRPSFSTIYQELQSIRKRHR
Sequence of Homeodomain-interacting protein kinase 3 (Homo sapiens) (Q9H422 whole entry, looked up): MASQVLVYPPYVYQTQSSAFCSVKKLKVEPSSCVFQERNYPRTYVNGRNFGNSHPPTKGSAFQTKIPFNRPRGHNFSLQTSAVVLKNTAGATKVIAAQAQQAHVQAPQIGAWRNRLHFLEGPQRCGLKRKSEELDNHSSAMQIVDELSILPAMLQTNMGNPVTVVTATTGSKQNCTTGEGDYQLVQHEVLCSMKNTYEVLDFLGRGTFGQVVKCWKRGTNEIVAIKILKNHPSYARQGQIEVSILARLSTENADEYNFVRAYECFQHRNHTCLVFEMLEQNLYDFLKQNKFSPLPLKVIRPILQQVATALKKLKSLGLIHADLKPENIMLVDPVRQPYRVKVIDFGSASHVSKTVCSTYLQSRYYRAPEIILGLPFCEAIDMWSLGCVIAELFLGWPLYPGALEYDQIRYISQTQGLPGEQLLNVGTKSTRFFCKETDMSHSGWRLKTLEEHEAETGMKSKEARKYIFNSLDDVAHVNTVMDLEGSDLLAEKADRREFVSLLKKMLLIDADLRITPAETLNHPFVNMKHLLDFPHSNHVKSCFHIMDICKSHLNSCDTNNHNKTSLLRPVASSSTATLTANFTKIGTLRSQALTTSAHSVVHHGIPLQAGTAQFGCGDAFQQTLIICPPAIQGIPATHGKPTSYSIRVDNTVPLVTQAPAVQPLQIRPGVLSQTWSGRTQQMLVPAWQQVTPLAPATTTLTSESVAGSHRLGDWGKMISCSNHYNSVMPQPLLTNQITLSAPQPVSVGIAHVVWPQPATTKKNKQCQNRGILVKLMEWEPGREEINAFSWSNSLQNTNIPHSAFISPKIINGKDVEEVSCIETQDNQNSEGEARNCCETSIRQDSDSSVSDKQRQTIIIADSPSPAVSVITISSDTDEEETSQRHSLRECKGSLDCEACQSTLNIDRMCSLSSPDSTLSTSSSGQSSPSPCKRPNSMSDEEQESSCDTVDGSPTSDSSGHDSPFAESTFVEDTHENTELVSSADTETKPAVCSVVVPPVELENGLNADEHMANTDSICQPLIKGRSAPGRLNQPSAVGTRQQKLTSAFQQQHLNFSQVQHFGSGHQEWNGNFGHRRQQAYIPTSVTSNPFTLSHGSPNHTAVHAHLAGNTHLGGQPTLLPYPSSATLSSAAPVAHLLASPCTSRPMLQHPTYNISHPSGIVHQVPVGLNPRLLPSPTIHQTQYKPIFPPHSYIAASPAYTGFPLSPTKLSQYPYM
Sequence of MAP kinase-interacting serine/threonine-protein kinase 2 (Q9HBH9 whole entry, looked up): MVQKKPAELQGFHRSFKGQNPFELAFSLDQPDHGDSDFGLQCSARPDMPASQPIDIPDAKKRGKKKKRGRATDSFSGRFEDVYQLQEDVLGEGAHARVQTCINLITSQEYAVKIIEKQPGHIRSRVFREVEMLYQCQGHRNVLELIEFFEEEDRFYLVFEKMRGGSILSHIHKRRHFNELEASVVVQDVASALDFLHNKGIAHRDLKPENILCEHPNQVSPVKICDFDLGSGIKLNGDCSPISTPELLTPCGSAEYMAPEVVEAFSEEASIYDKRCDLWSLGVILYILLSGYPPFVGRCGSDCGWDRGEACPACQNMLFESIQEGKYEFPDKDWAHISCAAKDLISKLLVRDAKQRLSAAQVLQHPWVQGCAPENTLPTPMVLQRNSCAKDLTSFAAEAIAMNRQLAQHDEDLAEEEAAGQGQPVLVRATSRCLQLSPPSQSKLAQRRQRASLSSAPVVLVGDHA
Sequence of Epithelial discoidin domain-containing receptor 1 (Homo sapiens) (Q08345 whole entry, the tested form may be a part): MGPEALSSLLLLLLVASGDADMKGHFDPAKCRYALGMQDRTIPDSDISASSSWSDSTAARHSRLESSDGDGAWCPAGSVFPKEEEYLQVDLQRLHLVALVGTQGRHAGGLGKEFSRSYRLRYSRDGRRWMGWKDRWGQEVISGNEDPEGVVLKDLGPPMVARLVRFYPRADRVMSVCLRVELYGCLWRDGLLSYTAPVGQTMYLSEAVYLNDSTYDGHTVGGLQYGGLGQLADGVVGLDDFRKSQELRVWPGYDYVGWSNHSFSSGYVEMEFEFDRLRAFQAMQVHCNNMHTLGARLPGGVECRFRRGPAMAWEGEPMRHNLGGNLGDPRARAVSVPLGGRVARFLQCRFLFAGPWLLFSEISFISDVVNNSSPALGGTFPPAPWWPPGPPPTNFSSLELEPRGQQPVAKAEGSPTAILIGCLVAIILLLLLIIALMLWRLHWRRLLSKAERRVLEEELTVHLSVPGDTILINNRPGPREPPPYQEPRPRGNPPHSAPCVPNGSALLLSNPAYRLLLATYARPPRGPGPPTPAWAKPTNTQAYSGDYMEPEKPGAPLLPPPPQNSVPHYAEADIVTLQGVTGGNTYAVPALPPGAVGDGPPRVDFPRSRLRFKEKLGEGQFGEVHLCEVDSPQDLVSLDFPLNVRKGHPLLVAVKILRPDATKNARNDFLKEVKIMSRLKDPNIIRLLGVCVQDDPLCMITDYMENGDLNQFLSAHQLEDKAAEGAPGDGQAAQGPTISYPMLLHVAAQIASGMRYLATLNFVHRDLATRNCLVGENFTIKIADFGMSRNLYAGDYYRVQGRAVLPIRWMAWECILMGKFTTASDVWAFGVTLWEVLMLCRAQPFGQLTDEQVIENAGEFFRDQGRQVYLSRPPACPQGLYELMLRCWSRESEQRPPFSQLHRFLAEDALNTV
Sequence of Glycogen synthase kinase-3 alpha (Homo sapiens) (P49840 2-483 limits assumed): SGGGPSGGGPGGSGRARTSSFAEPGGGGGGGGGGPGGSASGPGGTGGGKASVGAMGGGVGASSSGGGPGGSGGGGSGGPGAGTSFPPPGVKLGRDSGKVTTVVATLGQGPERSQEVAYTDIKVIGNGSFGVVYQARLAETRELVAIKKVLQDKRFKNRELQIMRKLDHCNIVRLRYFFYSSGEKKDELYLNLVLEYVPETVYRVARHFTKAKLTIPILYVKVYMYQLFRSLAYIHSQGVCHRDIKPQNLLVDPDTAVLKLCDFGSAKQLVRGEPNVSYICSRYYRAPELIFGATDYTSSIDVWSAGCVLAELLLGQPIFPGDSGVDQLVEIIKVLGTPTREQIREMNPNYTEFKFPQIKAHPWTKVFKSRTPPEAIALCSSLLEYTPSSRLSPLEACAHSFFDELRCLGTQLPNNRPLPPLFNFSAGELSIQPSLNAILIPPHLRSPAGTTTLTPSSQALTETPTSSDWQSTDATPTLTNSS

fold change (FC) [1]: 0 | fold change (FC) [2]: 0.03 | inhibition [3]: 0%
Compound: CNC(=O)c1ccccc1Oc1nc(Nc2cc(OC)c(OC)c(OC)c2)ncc1Br

inhibition [4]: 1% | fold change (FC) [5]: 0 | inhibition [6]: 0%
Compound: CC(C)[C@H](NC(=O)c1cc(-c2cnn3cc(-c4ccc(OCCN5CCCCC5)cc4)cnc23)cs1)C(F)(F)F

fold change (FC) [7]: 0 | fold change (FC) [8]: 0.25 | inhibition [9]: 0%
Compound: O=C(N[C@@H](C1CC1)C(F)(F)F)c1cc(-c2cnn3cc(-c4ccc(F)cc4)cnc23)cs1
